In publication PMC2719774 (European journal of pharmaceutics and biopharmaceutics : …, 2009):
“And” between values parts separate entries of the source, which are not always exact repeats. Equal entries are not always repeated.

Key:
in vitro = conditions: dog, MDCK-MDR1
P-gp = assay: in vitro; conditions: dog, MDCK-MDR1
CYP1A1 = target: T1, CYP1A1 (Homo sapiens, UniProt P04798); assay: In vitro metabolism screening with recombinant CYP1A1; assay type: in vitro ADME; conditions: 1 h, 37°C
T1 sequence (P04798 1-512): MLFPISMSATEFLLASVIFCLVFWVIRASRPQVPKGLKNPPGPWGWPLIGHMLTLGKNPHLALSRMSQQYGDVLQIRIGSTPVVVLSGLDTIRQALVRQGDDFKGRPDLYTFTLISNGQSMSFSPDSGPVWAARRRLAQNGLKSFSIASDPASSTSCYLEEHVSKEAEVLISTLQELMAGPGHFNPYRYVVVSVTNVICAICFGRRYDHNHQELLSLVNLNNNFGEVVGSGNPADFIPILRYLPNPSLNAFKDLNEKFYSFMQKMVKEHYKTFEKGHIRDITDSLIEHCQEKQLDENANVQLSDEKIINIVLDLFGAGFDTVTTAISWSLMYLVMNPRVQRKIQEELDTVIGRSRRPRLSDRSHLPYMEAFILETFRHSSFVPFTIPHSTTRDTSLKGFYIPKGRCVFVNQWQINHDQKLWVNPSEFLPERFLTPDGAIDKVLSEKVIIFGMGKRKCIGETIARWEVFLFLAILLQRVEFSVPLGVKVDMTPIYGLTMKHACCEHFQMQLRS

[1] = rhesus monkeys, plasma, single dose ref 24; cited from earlier work
P-gp (MDR1) = assay: in vitro; conditions: dog, MDCK-MDR1
CYP2C18 = target: T2, CYP2C18 (Homo sapiens, UniProt P33260); assay: In vitro metabolism screening with recombinant CYP2C18; assay type: in vitro ADME; conditions: 1 h, 37°C
T2 sequence (P33260 26-490): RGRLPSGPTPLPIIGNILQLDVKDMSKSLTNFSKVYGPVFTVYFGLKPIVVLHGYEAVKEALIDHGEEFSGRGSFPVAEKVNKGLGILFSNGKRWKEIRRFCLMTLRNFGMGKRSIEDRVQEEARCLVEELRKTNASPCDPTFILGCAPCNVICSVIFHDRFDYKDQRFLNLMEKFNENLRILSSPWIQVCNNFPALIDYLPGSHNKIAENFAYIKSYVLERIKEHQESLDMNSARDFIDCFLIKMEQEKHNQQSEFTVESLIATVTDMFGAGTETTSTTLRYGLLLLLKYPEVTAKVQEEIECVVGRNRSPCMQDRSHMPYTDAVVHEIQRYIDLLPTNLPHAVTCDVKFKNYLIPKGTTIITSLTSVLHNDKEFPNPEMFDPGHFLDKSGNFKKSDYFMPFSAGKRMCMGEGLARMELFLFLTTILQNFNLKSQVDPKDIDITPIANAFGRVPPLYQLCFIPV

recombinant human P-gp = recombinant human P-gp (Homo sapiens, UniProt P08183); assay: P-gp ATPase activity; conditions: for Fold Stimulation of P-gp ATPase activity: relative to non treated
recombinant human P-gp, sequence (P08183 whole entry): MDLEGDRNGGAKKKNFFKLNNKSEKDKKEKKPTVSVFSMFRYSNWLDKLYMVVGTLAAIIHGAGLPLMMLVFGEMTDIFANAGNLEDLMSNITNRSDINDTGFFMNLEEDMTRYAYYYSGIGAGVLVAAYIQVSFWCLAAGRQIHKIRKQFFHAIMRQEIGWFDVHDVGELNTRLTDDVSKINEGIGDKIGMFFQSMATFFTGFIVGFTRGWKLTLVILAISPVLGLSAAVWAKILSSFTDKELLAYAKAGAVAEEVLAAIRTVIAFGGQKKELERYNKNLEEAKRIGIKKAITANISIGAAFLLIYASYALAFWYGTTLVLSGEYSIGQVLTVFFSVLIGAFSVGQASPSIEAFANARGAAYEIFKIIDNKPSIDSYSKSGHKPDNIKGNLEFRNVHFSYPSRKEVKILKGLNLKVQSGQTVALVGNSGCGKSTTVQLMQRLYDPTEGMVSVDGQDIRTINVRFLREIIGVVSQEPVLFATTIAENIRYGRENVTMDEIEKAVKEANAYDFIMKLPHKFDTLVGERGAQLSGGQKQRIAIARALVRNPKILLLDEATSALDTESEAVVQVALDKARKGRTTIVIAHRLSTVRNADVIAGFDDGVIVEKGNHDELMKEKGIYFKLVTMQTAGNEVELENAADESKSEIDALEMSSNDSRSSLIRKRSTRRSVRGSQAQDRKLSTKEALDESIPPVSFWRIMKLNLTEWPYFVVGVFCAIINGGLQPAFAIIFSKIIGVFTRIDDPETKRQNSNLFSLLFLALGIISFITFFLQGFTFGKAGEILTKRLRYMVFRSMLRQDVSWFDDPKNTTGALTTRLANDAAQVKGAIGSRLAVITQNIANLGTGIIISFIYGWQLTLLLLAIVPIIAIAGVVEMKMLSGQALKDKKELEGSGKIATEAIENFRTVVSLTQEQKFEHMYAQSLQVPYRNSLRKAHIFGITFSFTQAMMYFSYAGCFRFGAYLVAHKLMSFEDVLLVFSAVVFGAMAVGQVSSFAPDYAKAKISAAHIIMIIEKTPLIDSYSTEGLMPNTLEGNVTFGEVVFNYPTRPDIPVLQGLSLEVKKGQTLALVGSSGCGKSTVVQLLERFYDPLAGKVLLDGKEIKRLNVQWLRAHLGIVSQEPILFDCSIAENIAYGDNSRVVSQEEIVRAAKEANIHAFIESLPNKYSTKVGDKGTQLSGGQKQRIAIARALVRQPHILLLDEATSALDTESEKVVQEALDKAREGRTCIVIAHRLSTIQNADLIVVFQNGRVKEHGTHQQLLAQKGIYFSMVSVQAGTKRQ

[2] = humans ref 13; cited from earlier work
CYP2E1 = CYP2E1 (Homo sapiens, UniProt P05181); assay: In vitro metabolism screening with recombinant CYP2E1; assay type: in vitro ADME; conditions: 1 h, 37°C
CYP2E1, sequence (P05181 whole entry): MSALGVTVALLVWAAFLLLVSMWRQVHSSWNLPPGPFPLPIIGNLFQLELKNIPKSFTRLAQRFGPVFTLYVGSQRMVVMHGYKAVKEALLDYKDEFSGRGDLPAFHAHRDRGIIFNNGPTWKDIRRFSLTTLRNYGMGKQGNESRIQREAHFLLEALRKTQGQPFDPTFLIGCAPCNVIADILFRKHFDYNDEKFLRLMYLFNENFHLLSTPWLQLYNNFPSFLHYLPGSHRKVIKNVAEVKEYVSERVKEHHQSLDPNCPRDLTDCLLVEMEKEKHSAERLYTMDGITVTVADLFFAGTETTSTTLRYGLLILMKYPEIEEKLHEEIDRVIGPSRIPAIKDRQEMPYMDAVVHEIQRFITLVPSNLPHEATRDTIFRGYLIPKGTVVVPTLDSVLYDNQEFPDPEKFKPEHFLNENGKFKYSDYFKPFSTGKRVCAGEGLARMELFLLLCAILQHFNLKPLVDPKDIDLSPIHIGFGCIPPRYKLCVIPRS

[3] = PET imaging, female baboons ref 25; cited from earlier work
[4] = Single-dose pharmacokinetics and brain distribution in rats; assay type: in vivo, male Sprague Dawley rats; conditions: rat; for t1/2 / half-life: 10 mg/kg i.p.
CYP2D6 = CYP2D6 (Homo sapiens, UniProt P10635); assay: In vitro metabolism screening with recombinant CYP2D6; assay type: in vitro ADME; conditions: 1 h, 37°C
CYP2D6, sequence (P10635 whole entry): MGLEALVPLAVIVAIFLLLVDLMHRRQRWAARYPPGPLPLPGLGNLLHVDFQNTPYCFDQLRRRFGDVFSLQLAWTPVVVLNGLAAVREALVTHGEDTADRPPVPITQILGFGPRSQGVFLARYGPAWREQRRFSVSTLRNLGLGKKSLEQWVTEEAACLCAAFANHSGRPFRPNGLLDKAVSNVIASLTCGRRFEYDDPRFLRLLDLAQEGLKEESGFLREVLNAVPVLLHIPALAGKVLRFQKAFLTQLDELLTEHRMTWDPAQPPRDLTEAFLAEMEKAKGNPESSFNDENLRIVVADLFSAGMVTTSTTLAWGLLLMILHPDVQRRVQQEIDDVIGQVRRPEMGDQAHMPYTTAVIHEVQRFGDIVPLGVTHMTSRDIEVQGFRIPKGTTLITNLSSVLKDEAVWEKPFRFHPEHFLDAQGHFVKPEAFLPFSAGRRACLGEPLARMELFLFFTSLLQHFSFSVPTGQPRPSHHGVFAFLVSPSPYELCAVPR

UGT2B7 = target: T3, UGT2B7 (Homo sapiens, UniProt P16662); assay: In vitro metabolism screening with UGT2B7 Supersomes; assay type: in vitro ADME; conditions: 37°C
T3 sequence (P16662 24-529): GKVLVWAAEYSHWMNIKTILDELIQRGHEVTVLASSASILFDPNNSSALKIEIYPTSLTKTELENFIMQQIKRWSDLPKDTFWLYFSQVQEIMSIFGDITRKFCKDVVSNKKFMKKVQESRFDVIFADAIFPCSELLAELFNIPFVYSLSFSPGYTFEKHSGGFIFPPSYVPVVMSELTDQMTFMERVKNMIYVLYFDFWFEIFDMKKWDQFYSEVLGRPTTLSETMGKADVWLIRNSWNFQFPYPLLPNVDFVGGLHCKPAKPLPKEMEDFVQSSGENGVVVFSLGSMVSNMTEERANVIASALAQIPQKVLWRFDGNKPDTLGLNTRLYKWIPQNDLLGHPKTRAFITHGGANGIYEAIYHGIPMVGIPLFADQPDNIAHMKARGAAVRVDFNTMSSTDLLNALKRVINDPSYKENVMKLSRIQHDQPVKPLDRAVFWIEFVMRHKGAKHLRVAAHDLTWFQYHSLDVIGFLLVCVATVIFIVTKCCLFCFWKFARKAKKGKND

[5] = system: MDCK-MDR1 cell monolayers; conditions: 5 μM, 37°C, PBS; UV-HPLC limit of detection 100 ng/ml
[6] = male, Sprague Dawley, brain, ip, 10 mg/kg
[7] = male, Sprague Dawley, plasma, ip, 10 mg/kg

OC[C@@H](O)[C@@H](O)[C@H](O)[C@H](O)CO [Mannitol, mannitol]
Papp (in vitro): 3.23 ×10⁻⁶ cm/s

CC(=O)O[C@H]1C(=O)[C@@]2(C)[C@H]([C@H](OC(=O)c3ccccc3)[C@]3(O)C[C@H](OC(=O)[C@H](O)[C@@H](NC(=O)c4ccccc4)c4ccccc4)C(C)=C1C3(C)C)[C@]1(OC(C)=O)CO[C@@H]1C[C@@H]2O [paclitaxel]
efflux ratio (P-gp): 15.2

COC(=O)[C@@H]1C[C@H](OC(C)=O)C(=O)[C@H]2[C@@]1(C)CC[C@H]1C(=O)O[C@H](c3ccoc3)C[C@]21C [Salvinorin A]
% reduction of initial concentration (CYP1A1; 5 μM): 31.1±1.20% and 31.1(±1.20) %
% reduction of initial concentration (CYP1A1; 50 μM): 5.3(±2) %
elimination half-life [1]: 56.6 ± 24.8 min
Papp B→A at 5 μM (P-gp (MDR1)): 40.7 ×10⁻⁶ cm/s
% reduction of initial concentration (CYP2C18; 5 μM): 20.6(±1.00) %
% reduction of initial concentration (CYP2C18; 50 μM): 6(±1.2) %
rate of ATP consumption (P-gp ATPase activity) (recombinant human P-gp; 2.5 μM): 50.94 ± 17.87 pmol/μg P-gp/min
Fold Stimulation of P-gp ATPase activity (recombinant human P-gp; 2.5 μM): 2.39
rate of ATP consumption (P-gp ATPase activity) (recombinant human P-gp; 5 μM): 47.48 ± 3.36 pmol/μg P-gp/min and 47.78 ± 3.36 ^a pmol/μg P-gp/min
Fold Stimulation of P-gp ATPase activity (recombinant human P-gp; 5 μM): 2.24
rate of ATP consumption (P-gp ATPase activity) (recombinant human P-gp; 10 μM): 41.14 ± 5.86 pmol/μg P-gp/min and 41.14 ± 5.86 ^b pmol/μg P-gp/min
Fold Stimulation of P-gp ATPase activity (recombinant human P-gp; 10 μM): 1.93
rate of ATP consumption (P-gp ATPase activity) (recombinant human P-gp; 25 μM): 31.08 ± 21.18 pmol/μg P-gp/min
Fold Stimulation of P-gp ATPase activity (recombinant human P-gp; 25 μM): 1.46
duration of hallucinogenic experience [2]: ≤ 15 min
time to appearance of hallucinogenic experience [2]: less than 1 min
% reduction of initial concentration (CYP2E1; 5 μM): 22(±0.80) %
% reduction of initial concentration (CYP2E1; 50 μM): 6.4(±1.6) %
time to peak brain uptake after dosing [3]: 40 s
t1/2 ([4]; brain): 36.1 min
Kp ([4]; male, Sprague Dawley, brain and plasma, ip, 10 mg/kg): 0.05
AUC(0-inf) [4, 6]: 20.6 ng·h/mL
AUC(0-t) [4, 6]: 13 ng·h/mL
Cmax [4, 6]: 23.9 ng/mL
Tmax [4, 6]: 10 min
half-life ([4]; male, Sprague Dawley, brain, ip, 10 mg/kg, t1/2, brain): 36 min
Tmax ([4]; male, Sprague Dawley, plasma and brain, ip, 10 mg/kg): 10 to 15 min
AUC(0-inf) [4, 7]: 410 ng·h/mL
AUC(0-t) [4, 7]: 348 ng·h/mL
CL/F [4, 7]: 433 mL/min/kg
Cmax [4, 7]: 345 ng/mL
Tmax [4, 7]: 15 min
k el [4, 7]: 0.000153 s⁻¹
half-life ([4]; male, Sprague Dawley, plasma, ip, 10 mg/kg, t1/2, plasma): 75 min
k el ([4]; male, Sprague-Dawley, brain, ip, 10 mg/kg): 3.19e-05 s⁻¹
Vd/F ([4]; male, Sprague-Dawley, plasma, ip, 10 mg/kg): 47.1 L/kg
t1/2 ([4]; plasma): 75.4 min
% reduction of initial concentration (CYP2D6; 5 μM): 14.7±0.80% and 14.7(± 0.80) %
% reduction of initial concentration (CYP2D6; 50 μM): 10(± 1.2) %
% reduction of initial concentration (UGT2B7; 5 μM, two hour incubation): 51(± 4.00) %
% reduction of initial concentration (UGT2B7; 10 μM, 1 h): 18.1(± 5.20) %
% reduction of initial concentration (UGT2B7; 50 μM, 1 h): 7(±5.60) %
absorptive transport (Papp A→B) [5]: not detected
